The values below come from patent US9695154B2, “Heteroaryl inhibitors of sumo activating enzyme” (MILLENNIUM PHARMACEUTICALS, INC., priority 2013, dated 2017).

As a reminder, the IC50 is the point on the concentration scale where inhibition reaches its midpoint. By inhibition is commonly meant how much of the control response was suppressed.

The experiment addresses T1, recombinant human SAE enzyme (Homo sapiens, UniProt Q9UBT2).
T1 sequence (Q9UBT2 1-640): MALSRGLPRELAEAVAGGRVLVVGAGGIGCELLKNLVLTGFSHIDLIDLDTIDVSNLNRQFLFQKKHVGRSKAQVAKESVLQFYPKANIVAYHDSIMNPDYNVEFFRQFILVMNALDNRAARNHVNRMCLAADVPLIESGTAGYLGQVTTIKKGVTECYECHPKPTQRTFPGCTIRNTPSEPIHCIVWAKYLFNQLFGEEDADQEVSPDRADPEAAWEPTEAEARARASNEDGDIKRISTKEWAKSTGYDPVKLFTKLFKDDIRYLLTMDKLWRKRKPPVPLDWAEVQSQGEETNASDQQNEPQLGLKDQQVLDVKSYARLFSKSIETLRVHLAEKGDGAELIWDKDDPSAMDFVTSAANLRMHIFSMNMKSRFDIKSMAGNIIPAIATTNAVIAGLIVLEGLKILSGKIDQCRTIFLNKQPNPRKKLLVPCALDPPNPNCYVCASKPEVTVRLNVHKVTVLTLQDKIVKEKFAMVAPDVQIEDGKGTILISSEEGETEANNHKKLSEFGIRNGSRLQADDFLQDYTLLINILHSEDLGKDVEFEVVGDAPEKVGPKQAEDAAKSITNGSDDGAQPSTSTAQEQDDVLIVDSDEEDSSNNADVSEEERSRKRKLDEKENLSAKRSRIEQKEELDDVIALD
T1 sequence (Q9UBE0 1-346 partner): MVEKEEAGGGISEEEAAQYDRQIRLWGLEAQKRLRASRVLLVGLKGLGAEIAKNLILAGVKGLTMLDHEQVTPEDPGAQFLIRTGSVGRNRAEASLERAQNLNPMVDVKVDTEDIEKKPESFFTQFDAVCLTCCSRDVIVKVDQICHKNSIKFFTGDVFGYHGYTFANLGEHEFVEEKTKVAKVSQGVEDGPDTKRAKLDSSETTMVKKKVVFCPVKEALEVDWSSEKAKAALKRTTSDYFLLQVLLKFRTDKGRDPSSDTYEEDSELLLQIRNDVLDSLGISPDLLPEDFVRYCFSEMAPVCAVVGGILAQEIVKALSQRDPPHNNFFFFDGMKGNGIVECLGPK
Description: SAE HTRF Enzyme Assay. The format is biochemical. The conditions noted are these: for IC50: class symbols A-C; for inhibition at 0.111 µM: read-out: Percent Inhibition. Summed up: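 Reaction with 0.11 nM recombinant human SAE, 0.5 μM ATP, 0.01 μM Ubc9-GST, 0.125 μM Sumo-Flag in HEPES pH 7.5, MgCl2, GSH, BSA, 105 min at 24 °C. Stopped with EDTA/KF buffer carrying Eu-anti-Flag and anti-GST-APC; HTRF read after 2 h; % inhibition or IC50.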

The mark [1] stands for this setting: compound concentration 0.111 μM.

Take `NS(=O)(=O)OC[C@H]1C[C@@H](Nc2ncncc2C(=O)c2ccn(Cc3ccc(Cl)c(Cl)c3)n2)[C@H](O)[C@@H]1O` [Compound I-159, {(1R,2R,3S,4R)-4-[(5-{[1-(3,4-dichlorobenzyl)-1H-pyrazol-3-yl]carbonyl}pyrimidin-4-yl)amino]-2,3-dihydroxycyclopentyl}methyl sulfamate]: the IC50 was less than 10 nM. For the same molecule, the inhibition at 0.111 µM under setting [1] came out at 96%.
The corresponding values for `NS(=O)(=O)OC[C@H]1C[C@@H](Nc2ncncc2C(=O)c2ccn(Cc3cccc(C(F)(F)F)c3)c2)C[C@@H]1O` [Compound I-129, [(1R,2S,4R)-2-hydroxy-4-{[5-({1-[3-(trifluoromethyl)benzyl]-1H-pyrrol-3-yl}carbonyl)pyrimidin-4-yl]amino}cyclopentyl]methyl sulfamate] are less than 10 nM and 99%.
The like results for `C#Cc1cccc([C@H](C)n2ccc(C(=O)c3cncnc3N[C@@H]3C[C@H](COS(N)(=O)=O)[C@@H](O)C3)n2)c1` (single isomer, unassigned) [Compound I-355] were, in that order, less than 10 nM and 99%.
In the case of `NS(=O)(=O)OC[C@H]1C[C@@H](Nc2ncncc2C(=O)c2ccn(Cc3ccc(F)cc3)n2)C[C@@H]1O` [Compound I-161, {(1R,2S,4R)-4-[(5-{[1-(4-fluorobenzyl)-1H-pyrazol-3-yl]carbonyl}pyrimidin-4-yl)amino]-2-hydroxycyclopentyl}methyl sulfamate], the IC50 is less than 10 nM. Moreover, the inhibition at 0.111 µM under setting [1] worked out at 92%.
The like results for `NS(=O)(=O)OC[C@H]1C[C@@H](Nc2ncncc2C(=O)c2ccn(Cc3ccnc(C(F)(F)F)c3)n2)C[C@@H]1O` [Compound I-53, [(1R,2S,4R)-2-hydroxy-4-({5-[(1-{[2-(trifluoromethyl)pyridin-4-yl]methyl}-1H-pyrazol-3-yl)carbonyl]pyrimidin-4-yl}amino)cyclopentyl]methyl sulfamate] were, in that order, 10 to 100 nM and 79%.
The like results for `NS(=O)(=O)OC[C@H]1C[C@@H](Nc2ncncc2C(=O)c2ccn(Cc3ccc(C(F)(F)F)o3)n2)C[C@@H]1O` [Compound I-163, [(1R,2S,4R)-2-hydroxy-4-({5-[(1-{[5-(trifluoromethyl)-2-furyl]methyl}-1H-pyrazol-3-yl)carbonyl]pyrimidin-4-yl}amino)cyclopentyl]methyl sulfamate] were, in that order, less than 10 nM and 98%.
The corresponding values for `NS(=O)(=O)OC[C@@H]1C[C@@H](Nc2ncncc2C(=O)c2ccn(Cc3ccccc3)n2)C[C@@H]1O` [Compound I-342, [(1S,2S,4R)-4-({5-[(1-benzyl-1H-pyrazol-3-yl)carbonyl]pyrimidin-4-yl}amino)-2-hydroxycyclopentyl]methyl sulfamate] are 10 to 100 nM and 79%.
Take `C=C[S+]([O-])c1cccc(Cn2ccc(C(=O)c3cncnc3N[C@@H]3C[C@H](COS(N)(=O)=O)[C@@H](O)[C@H]3O)n2)c1` (mixture of isomers) [Compound I-74, [(1R,2R,3S,4R)-2,3-dihydroxy-4-{[5-({1-[3-((R)-vinylsulfinyl)benzyl]-1H-pyrazol-3-yl}carbonyl)pyrimidin-4-yl]amino}cyclopentyl]methyl sulfamate and [(1R,2R,3S,4R)-2,3-dihydroxy-4-{[5-({1-[3-((S)-vinylsulfinyl)benzyl]-1H-pyrazol-3-yl}carbonyl)pyrimidin-4-yl]amino}cyclopentyl]methyl sulfamate]: the IC50 was less than 10 nM. For the same molecule, the inhibition at 0.111 µM under setting [1] amounted to 92%.
The corresponding values for `NS(=O)(=O)OC[C@H]1C[C@@H](Nc2ncncc2C(=O)c2ccn(Cc3cccc(OC(F)(F)F)c3)c2)C[C@@H]1O` [Compound I-271, [(1R,2S,4R)-2-hydroxy-4-{[5-({1-[3-(trifluoromethoxy)benzyl]-1H-pyrrol-3-yl}carbonyl)pyrimidin-4-yl]amino}cyclopentyl]methyl sulfamate] are less than 10 nM and 97%.
The like results for `NS(=O)(=O)OC[C@H]1C[C@@H](Nc2ncncc2C(=O)c2nn(Cc3cccc(Br)c3)cc2Cl)C[C@@H]1O` [Compound I-111, {(1R,2S,4R)-4-[(5-{[1-(3-Bromobenzyl)-4-chloro-1H-pyrazol-3-yl]carbonyl}pyrimidin-4-yl)amino]-2-hydroxycyclopentyl}methyl sulfamate] were, in that order, less than 10 nM and 91%.
The like results for `Cc1cc(C(=O)c2cncnc2N[C@@H]2C[C@@H](COS(N)(=O)=O)[C@@H](O)C2)nn1Cc1cccc(Br)c1` [Compound I-6, {(1S,2S,4R)-4-[(5-{[1-(3-bromobenzyl)-5-methyl-1H-pyrazol-3-yl]carbonyl}pyrimidin-4-yl)amino]-2-hydroxycyclopentyl}methyl sulfamate] were, in that order, less than 10 nM and 99%.
For the molecule `NS(=O)(=O)OC[C@H]1C[C@@H](Nc2ncncc2C(=O)c2ccn(Cc3cccc(Cl)c3)n2)C[C@@H]1O` [Compound I-215, {(1R,2S,4R)-4-[(5-{[1-(3-chlorobenzyl)-1H-pyrazol-3-yl]carbonyl}pyrimidin-4-yl)amino]-2-hydroxycyclopentyl}methyl sulfamate], the IC50 is less than 10 nM. The inhibition at 0.111 µM under setting [1] is 99%.
Regarding `CC#CC(C)n1ccc(C(=O)c2cncnc2N[C@@H]2C[C@H](COS(N)(=O)=O)[C@@H](O)C2)n1` (single isomer, unassigned) [Compound I-86, {(1R,2S,4R)-2-hydroxy-4-[(5-{[1-(2S)-(pent-3-yn-2-yl)-1H-pyrazol-3-yl]carbonyl}pyrimidin-4-yl)amino]cyclopentyl}methyl sulfamate or {(1R,2S,4R)-2-hydroxy-4-[(5-{[1-(2R)-(pent-3-yn-2-yl)-1H-pyrazol-3-yl]carbonyl}pyrimidin-4-yl)amino]cyclopentyl}methyl sulfamate], the IC50 is 100 to 1000 nM. In addition, for the setting “compound concentration 0.111 μM, 0.111 µM”, the “Percent Inhibition” value is given as 35%.
As for `Cn1nc(Cn2ccc(C(=O)c3cncnc3N[C@@H]3C[C@H](COS(N)(=O)=O)[C@@H](O)C3)c2)cc1C(F)(F)F` [Compound I-306, [(1R,2S,4R)-2-hydroxy-4-({5-[(1-{[1-methyl-5-(trifluoromethyl)-1H-pyrazol-3-yl]methyl) 1H pyrrol-3-yl)carbonyl]pyrmidin-4-yl}amino)cyclopentyl]methyl sulfamate], the IC50 was less than 10 nM. The inhibition at 0.111 µM under setting [1] was determined as 99%.
In the case of `NS(=O)(=O)OC[C@H]1C[C@@H](Nc2ncncc2C(=O)c2ccn(Cc3cccc(Br)n3)n2)[C@H](O)[C@@H]1O` [Compound I-284, [(1R,2R,3S,4R)-4-{[5-({1-[(6-bromopyridin-2-yl)methyl]-1H-pyrazol-3-yl}carbonyl)pyrimidin-4-yl]amino}-2,3-dihydroxycyclopentyl]methyl sulfamate], the IC50 was less than 10 nM. The inhibition at 0.111 µM under setting [1] worked out at 100%.
The corresponding values for `NS(=O)(=O)OC[C@H]1C[C@@H](Nc2ncncc2C(=O)c2ccn(Cc3ccc(Cl)s3)n2)C[C@@H]1O` [Compound I-280, [(1R,2S,4R)-4-{[5-({1-[(5-chloro-2-thienyl)methyl]-1H-pyrazol-3-yl}carbonyl)pyrimidin-4-yl]amino}-2-hydroxycyclopentyl]methyl sulfamate] are less than 10 nM and 99%.
The like results for `COCc1cc(C(=O)c2cncnc2N[C@@H]2C[C@H](COS(N)(=O)=O)[C@@H](O)C2)nn1Cc1cccc(Br)c1` [Compound I-368, {(1R,2S,4R)-4-[(5-{[1-(3-bromobenzyl)-5-(methoxymethyl)-1H-pyrazol-3-yl]carbonyl}pyrimidin-4-yl)amino]-2-hydroxycyclopentyl}methyl sulfamate] were, in that order, less than 10 nM and 98%.
The corresponding values for `N#Cc1cccc(Cn2ccc(C(=O)c3cncnc3N[C@@H]3C[C@H](COS(N)(=O)=O)[C@@H](O)[C@H]3O)n2)c1` [Compound I-25, {(1R,2R,3S,4R)-4-[(5-{[1-(3-cyanobenzyl)-1H-pyrazol-3-yl]carbonyl}pyrimidin-4-yl)amino]-2,3-dihydroxycyclopentyl}methyl sulfamate] are less than 10 nM and 93%.
Regarding `NS(=O)(=O)OC[C@H]1C[C@@H](Nc2ncncc2C(=O)c2ccn(Cc3ccccn3)n2)[C@H](O)[C@@H]1O` [Compound I-150, {(1R,2R,3S,4R)-2,3-dihydroxy-4-[(5-{[1-(pyridin-2-ylmethyl)-1H-pyrazol-3-yl]carbonyl}pyrimidin-4-yl)amino]cyclopentyl}methyl sulfamate], the IC50 was less than 10 nM. Besides, the inhibition at 0.111 µM under setting [1] turned out to be 98%.
